Data on 13 molecules can be found in patent publication US6664252B2, “4-aminopyrrolo[2,3-d]pyrimidine compounds specific to adenosine A2a receptor and uses thereof” (OSI Pharmaceuticals, Inc., priority 1999, dated 2003).

In data set [1] the target is T1, human A1 adenosine receptor (Homo sapiens, UniProt P30542).
T1 sequence (P30542 1-326): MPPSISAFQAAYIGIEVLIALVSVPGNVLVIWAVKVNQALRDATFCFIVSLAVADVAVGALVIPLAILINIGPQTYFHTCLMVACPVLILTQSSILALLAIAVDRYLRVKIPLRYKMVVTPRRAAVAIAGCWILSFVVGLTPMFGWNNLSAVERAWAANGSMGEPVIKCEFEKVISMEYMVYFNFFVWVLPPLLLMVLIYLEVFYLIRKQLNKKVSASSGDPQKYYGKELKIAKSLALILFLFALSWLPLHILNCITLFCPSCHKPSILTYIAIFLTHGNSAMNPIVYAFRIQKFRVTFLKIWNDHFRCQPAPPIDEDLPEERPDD
The following applies: reported value; cited from earlier work.

In a further data set the target is T2, human adenosine A1 (A1R) (Homo sapiens, UniProt P30542).
T2 construct: yeast alpha-factor (MFalpha1) prepro leader (N, cleaved yes); expressed in transfected cells; host or cells: Saccharomyces cerevisiae (strain CY12660 and related strains carrying plasmid p5095)
T2 sequence (P30542 1-326): T1 sequence (P30542 1-326)
Description: Yeast β-Galactosidase reporter gene assay, inhibition of NECA-induced activity, strain CY12660. Format: cell-based. The following applies: Table 10. For orientation: Reporter assays use an easily measured gene product as a stand-in for the process of interest.

Data set [2] has as its target T3, human A2b receptor subtype (Homo sapiens, UniProt P29275).
T3 construct: expressed in transfected cells; host or cells: HEK293
T3 sequence (P29275 1-332): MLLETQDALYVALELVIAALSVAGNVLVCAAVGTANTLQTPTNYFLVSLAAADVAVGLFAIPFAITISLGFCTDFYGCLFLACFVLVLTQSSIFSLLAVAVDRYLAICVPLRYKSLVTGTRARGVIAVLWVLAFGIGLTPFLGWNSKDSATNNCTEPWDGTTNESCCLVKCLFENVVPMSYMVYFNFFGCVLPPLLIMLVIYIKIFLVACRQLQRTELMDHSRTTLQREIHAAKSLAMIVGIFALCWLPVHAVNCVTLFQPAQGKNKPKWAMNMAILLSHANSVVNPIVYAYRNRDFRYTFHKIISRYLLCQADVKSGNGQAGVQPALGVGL
Description: Adenosine 2b receptor subtype competition radioligand binding, [3H]DPCPX, HEK293 membranes. The following applies: for Ki: Table 14, read-out: Binding Data K1 (nM) A2B.

The target of data set [3] is T4, human A2a receptor subtype (Homo sapiens, UniProt P29274).
T4 construct: expressed in transfected cells; host or cells: HEK-293 (Cadus clone #5)
As to the kind of experiment: Adenosine 2a receptor subtype competition radioligand binding, [3H]CGS-21680, HEK293 membranes. The following applies: Table 13, in %; footnote 8: % activity @ 10 μM.

For data set [4], the target named is T5, human A1 receptor subtype (Homo sapiens, UniProt P30542).
T5 sequence (P30542 1-326): T1 sequence (P30542 1-326)
The following applies: Table 13, in %; footnote 8: % activity @ 10 μM.

The target in data set [5] is T6, human A3 receptor subtype (Homo sapiens, UniProt P0DMS8).
T6 construct: expressed in transfected cells; host or cells: HEK293
T6 sequence (P0DMS8 1-318): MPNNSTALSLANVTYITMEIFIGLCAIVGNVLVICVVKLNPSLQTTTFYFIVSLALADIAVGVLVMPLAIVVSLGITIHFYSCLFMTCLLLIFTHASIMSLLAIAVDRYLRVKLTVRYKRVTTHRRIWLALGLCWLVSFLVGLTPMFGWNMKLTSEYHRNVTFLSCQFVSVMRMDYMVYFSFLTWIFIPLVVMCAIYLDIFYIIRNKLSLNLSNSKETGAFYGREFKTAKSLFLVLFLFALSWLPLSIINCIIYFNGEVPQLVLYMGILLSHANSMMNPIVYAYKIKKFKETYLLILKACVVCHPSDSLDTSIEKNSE
Description: Adenosine 3 receptor competition radioligand binding, [125I]AB-MECA, HEK293 membranes. The following applies: Table 14; read-out: Binding Data K1 (nM) A3.

T4 sequence (P29274 whole entry): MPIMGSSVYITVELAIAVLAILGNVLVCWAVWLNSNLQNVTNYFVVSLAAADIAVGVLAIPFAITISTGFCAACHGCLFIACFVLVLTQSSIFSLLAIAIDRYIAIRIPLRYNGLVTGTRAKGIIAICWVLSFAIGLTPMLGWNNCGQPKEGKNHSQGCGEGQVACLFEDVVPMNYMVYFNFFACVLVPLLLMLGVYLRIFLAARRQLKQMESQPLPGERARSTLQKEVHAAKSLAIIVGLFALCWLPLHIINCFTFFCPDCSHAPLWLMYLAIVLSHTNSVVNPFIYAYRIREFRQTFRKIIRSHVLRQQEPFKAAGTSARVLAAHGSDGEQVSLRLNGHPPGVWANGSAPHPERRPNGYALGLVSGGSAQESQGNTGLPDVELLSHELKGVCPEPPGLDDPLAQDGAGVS

`CC(Cc1ccccc1)Nc1ncnc2c1ncn2[C@@H]1O[C@H](CO)[C@@H](O)[C@H]1O` (single isomer, unassigned; (-)) [R-PIA, (−)-N6-(2-phenylisopropyl)-adenosine]: in data set [1], the reported affinity entry is recorded as “approximately 50 nM”.

Regarding `CC(=O)NCCNc1nc(-c2ccccc2)nc2[nH]c(COc3ccccc3)cc12` [(25), 4-(2-acetylaminoethyl)amino-6-phenoxymethyl-2-phenyl-7H-pyrrolo[2,3d]pyrimidine], the melting point lay in the range of 196 to 197 °C. In the case of `Cc1[nH]c2nc(-c3ccccc3)nc(NCCN)c2c1C` [Compound 1000], the IC50 against human adenosine A1 (A1R) is more than 10 µM. Same read-out and setting: then `Cc1[nH]c2nc(-c3ccccc3)nc(NCCNS(C)(=O)=O)c2c1C` [Compound 1007], with more than 10 µM; and `Cc1[nH]c2nc(-c3ccccc3)nc(NCCNC(=O)CCN)c2c1C` [Compound 1009], with more than 10 µM. Turning to `Cc1[nH]c2nc(-c3ccccc3)nc(N[C@H]3CC[C@H](O)CC3)c2c1C` [Compound 1305], the “% activity, A2b binding” value in data set [2] (Table 13, in %, footnote 8: % activity @ 10 μM) was determined as 30%. Turning to `CNC(=O)NCCCNc1nc(-c2ccccc2)nc2[nH]c(C)c(C)c12` [Compound 1310], the “% activity, A2a binding” value in data set [3] is on record as 76%.

Take `Cc1[nH]c2nc(-c3ccccc3)nc(NCCNC(=O)C3(N)CC3)c2c1C` [Compound 1313]: in data set [3], the “% activity, A2a binding” value was determined as 65%. In data set [4], the “% activity, A1 binding” value is reported as 30%. For the molecule `CC(=O)NCCNc1nc(-c2ccccc2)nc2[nH]c(COc3ccccc3)cc12` [Compound 1400, 4-(2-acetylaminoethyl)amino-6-phenoxymethyl-2-phenyl-7H-pyrrolo[2,3d]pyrimidine], the Ki in data set [2] amounted to 10.3 nM. On to `CC(=O)NCCNc1nc(-c2ccccc2)nc2[nH]c(COc3ccc(F)cc3)cc12` [Compound 1401, 4-(2-acetylaminoethyl)amino-6-(4-fluorophenoxy)methyl-2-phenyl-7H-pyrrolo[2,3d]pyrimidine], for which the Ki in data set [2] is 8.8 nM. Turning to `CC(=O)NCCNc1nc(-c2ccccc2)nc2[nH]c(COc3ccc(Cl)cc3)cc12` [Compound 1402, 4-(2-acetylaminoethyl)amino-6-(4-chlorophenoxy)methyl-2-phenyl-7H-pyrrolo[2,3d]pyrimidine], the Ki in data set [5] is 60 nM. As to `OC[C@H]1CCCN1c1nc(-c2ccncc2)nc2[nH]ccc12` [Compound 1601], the melting point is 210 to 220 °C (dec.).

Regarding `NC(=O)[C@H]1CCCN1c1nc(-c2ccncc2)nc2[nH]c(-c3ccccc3)cc12` [Compound 1609, 1-(6-Phenyl-2-pyridin-4-yl-7H-pyrrolo[2,3-d]pyrimidin-4-yl]-pyrrolidine-2-carboxylic acid amide], the melting point was 280 to 316 °C (dec.).

Usually melting point stands for the temperature, or range, at which the solid turns liquid. The IC50 is the midpoint of a concentration-inhibition curve.
